Among the test systems are MDA-N; COLO 205 colon; T-47D breast; HCT-116 colon; SK-MEL-28 melanoma; TK-10 renal; K-562 leukemia; SK-MEL-5 melanoma; OVCAR-4 ovarian; SN12C renal; A549 NSCLC; KM12 colon; OVCAR-8 ovarian; SR leukemia; PC-3 prostate; MALME-3M melanoma; NCI/ADR-RES ovarian; BT-549 breast.
Common to all, as to test: NCI anticancer screen, dose series, 48 h

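These data come from cells grown in 96-well plates and exposed to compound for 48 hours at five concentrations. Definition used: TGI = concentration required for complete inhibition of growth.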 Bounds are passed on as bounds.

Turning to `CCc1nc2c(n1CC)C(=O)c1ccccc1C2=O`, the TGI with MDA-N was greater than 10 µM; with COLO 205 colon, 43.4 µM; with T-47D breast, 57 µM; in the experiment on HCT-116 colon, greater than 10 µM; in the experiment with SK-MEL-28 melanoma, greater than 100 µM; in the experiment on TK-10 renal it was 93.1 µM. For the same compound, the TGI with K-562 leukemia is greater than 100 µM; in the experiment on SK-MEL-5 melanoma, greater than 10 µM; in the experiment with OVCAR-4 ovarian, greater than 100 µM; in the experiment with SN12C renal, greater than 100 µM; in the experiment with A549 NSCLC, greater than 100 µM; with KM12 colon, greater than 100 µM. Further, the TGI was greater than 100 µM with OVCAR-8 ovarian; greater than 100 µM in the experiment on SR leukemia; 63.7 µM in the experiment with PC-3 prostate; 34.3 µM in the experiment on MALME-3M melanoma; greater than 100 µM in the experiment on NCI/ADR-RES ovarian; greater than 100 µM in the experiment with BT-549 breast.
For the compound `CC(=O)OC12c3ccccc3C(c3ccccc31)C1C(=O)N(Nc3ccccc3)C(=O)C12` (stereo not given), the TGI with MDA-N, with COLO 205 colon, with T-47D breast, in the experiment with HCT-116 colon, in the experiment with SK-MEL-28 melanoma and in the experiment on TK-10 renal was greater than 100 µM in each case. The TGI in the experiment with K-562 leukemia, in the experiment on SK-MEL-5 melanoma, in the experiment on OVCAR-4 ovarian, in the experiment on SN12C renal, with A549 NSCLC and in the experiment on KM12 colon was greater than 100 µM throughout. In addition, the TGI in the experiment with OVCAR-8 ovarian, in the experiment with SR leukemia, in the experiment on PC-3 prostate, in the experiment on MALME-3M melanoma, in the experiment with NCI/ADR-RES ovarian and in the experiment on BT-549 breast was greater than 100 µM throughout.
In the case of `Cc1ccc([N+](=O)[O-])cc1S(=O)(=O)Nc1ccc(C(=O)/C=C/c2ccccc2)cc1`, the TGI was 42.8 µM in the experiment on MDA-N; 44.9 µM with COLO 205 colon; 44.6 µM in the experiment with T-47D breast; 29.3 µM in the experiment on HCT-116 colon; 49.6 µM in the experiment with SK-MEL-28 melanoma; greater than 100 µM in the experiment on TK-10 renal. Also, the TGI was 29.7 µM in the experiment on K-562 leukemia; 32.1 µM with SK-MEL-5 melanoma; 5.51 µM with OVCAR-4 ovarian; 43.2 µM with SN12C renal; greater than 100 µM in the experiment on A549 NSCLC; 32.2 µM with KM12 colon. The TGI in the experiment with OVCAR-8 ovarian was 50.2 µM; in the experiment with SR leukemia it was 54.7 µM; in the experiment on PC-3 prostate, 30.6 µM; in the experiment with MALME-3M melanoma it was 39.5 µM; in the experiment with NCI/ADR-RES ovarian it was 66.2 µM; in the experiment with BT-549 breast, 33.7 µM.
Take `CC[C@H](C)[C@H](NC(=O)[C@H](Cc1ccc(O)cc1)NCC(F)(F)F)C(=O)OC(C)(C)C`: the TGI in the experiment on MDA-N stood at 17.7 µM; in the experiment on COLO 205 colon, 18.4 µM; with T-47D breast, 18.3 µM; in the experiment on HCT-116 colon, 16.6 µM; in the experiment on SK-MEL-28 melanoma, 19.1 µM; in the experiment with TK-10 renal, 15.4 µM. The TGI in the experiment on K-562 leukemia is 27.2 µM; in the experiment with SK-MEL-5 melanoma, 15.3 µM; in the experiment with OVCAR-4 ovarian it was 13.3 µM; in the experiment with SN12C renal it was 17.3 µM; with A549 NSCLC it was 13 µM; in the experiment on KM12 colon, 18.7 µM. Besides, the TGI with OVCAR-8 ovarian was 29.8 µM; in the experiment with SR leukemia, 20.8 µM; with PC-3 prostate it was 14.1 µM; in the experiment with MALME-3M melanoma it was 22.1 µM; in the experiment with NCI/ADR-RES ovarian it was 50 µM; in the experiment on BT-549 breast, 34.7 µM.
As for `CC1(C)CCCCC1/C=C/C(CC(O)(C(F)(F)F)C(F)(F)F)=N\Nc1ccc([N+](=O)[O-])cc1[N+](=O)[O-]` (stereo not given), the TGI turned out to be 11.9 µM with MDA-N; 10.8 µM with COLO 205 colon; 2.99 µM with T-47D breast; 6.2 µM in the experiment on HCT-116 colon; 18.8 µM in the experiment on SK-MEL-28 melanoma; 15.5 µM in the experiment on TK-10 renal. Besides, the TGI in the experiment on K-562 leukemia came to 11.1 µM; in the experiment on SK-MEL-5 melanoma it was 1.24 µM; in the experiment on OVCAR-4 ovarian it was 18.7 µM; with SN12C renal it was 31.7 µM; in the experiment with A549 NSCLC, 3.59 µM; with KM12 colon, 9.75 µM. Also, the TGI was 14.7 µM with OVCAR-8 ovarian; greater than 100 µM in the experiment with SR leukemia; 5.32 µM with PC-3 prostate; 48.3 µM with MALME-3M melanoma; greater than 100 µM in the experiment with NCI/ADR-RES ovarian; 1.99 µM in the experiment with BT-549 breast.
